# Data taken from publication PMC9310948 (Chemcatchem, 2022).
# Target: H. orenii β-glucosidase (GH1) (Halothermothrix orenii, UniProt B8CYA8)
# Experiment: p-nitrophenol release, absorbance […] nm
# Assay type: biochemical
# Conditions: 50 mM HEPES pH 7.4, 10 mM substrate
# Sequence of H. orenii β-glucosidase (GH1) (B8CYA8 1-451): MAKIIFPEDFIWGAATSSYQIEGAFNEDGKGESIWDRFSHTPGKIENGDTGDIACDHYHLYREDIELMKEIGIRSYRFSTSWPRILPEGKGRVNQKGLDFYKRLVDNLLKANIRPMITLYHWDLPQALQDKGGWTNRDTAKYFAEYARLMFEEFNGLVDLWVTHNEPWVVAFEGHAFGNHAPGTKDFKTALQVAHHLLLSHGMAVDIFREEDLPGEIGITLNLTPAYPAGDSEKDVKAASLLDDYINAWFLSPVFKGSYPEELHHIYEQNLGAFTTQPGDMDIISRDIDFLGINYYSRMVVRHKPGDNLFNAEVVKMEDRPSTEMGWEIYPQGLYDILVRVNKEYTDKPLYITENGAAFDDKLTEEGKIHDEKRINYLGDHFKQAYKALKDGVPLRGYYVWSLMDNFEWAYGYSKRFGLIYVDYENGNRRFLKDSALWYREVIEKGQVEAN
smiles,measurement,value
O=[N+]([O-])c1ccc(O[C@@H]2O[C@H](CO)[C@@H](O)[C@H](O)[C@H]2O)cc1 [p-nitrophenyl glucoside],"p-nitrophenol release, absorbance 420 nm",monitoring the enzymatic rate of hydrolysis of p‐nitrophenyl glucoside by a UV‐Vis assay
